Data from paper PMC11396129, “Oxindole–benzothiazole hybrids as CDK2 inhibitors and anticancer agents: design, synthesis and biological evaluation” (BMC Chemistry, 2024).

Assays:
Assay type in all cases: cell-based, human
A549/ATCC = assay: NCI 60 panel growth inhibition (SRB), non-small cell lung cancer; details: 10 μM
Experimental: (§1) Screening of cytotoxic activity against a panel of sixty human tumor cell lines The selected compounds by NCI were evaluated for their anticancer activity in a two- stage process. […] Then, the output from the single dose screen is reported as a mean graph. […] Assay protocol. […] For a typical screening experiment, cells are inoculated into 96 well microtiter plates in 100 µL at plating densities ranging from 5000 to 40,000 cells/well depending on the doubling time of individual cell lines. […] After 24 h, two plates of each cell line are fixed in situ with TCA, to represent a measurement of the cell population for each cell line at the time of drug addition (Tz). The experimental drugs are solubilized in dimethyl sulfoxide at 400-fold the desired final maximum test concentration and stored frozen prior to use. At the time of drug addition, an aliquot of frozen concentrate is thawed and diluted to twice the desired final maximum test concentration with complete medium containing 50 µg/mL gentamicin. Additional four, 10-fold or ½ log serial dilutions are made to provide a total of five drug concentrations plus control. […] For adherent cells, the assay is terminated by the addition of cold TCA. […] The supernatant is discarded, and the plates are washed five times with tap water and air dried. […] Using the seven absorbance measurements [time zero, (Tz), control growth, (C), and test growth in the presence of drug at the five concentration levels (Ti)], the percentage growth is calculated at each of the drug concentrations levels. Percentage growth inhibition is calculated as: [(Ti Tz)/(C–Tz)] x 100 for concentrations for which Ti>/=Tz and [(Ti-Tz)/Tz] x 100 for concentrations for which Ti < Tz. Three dose response parameters are calculated for each experimental agent. […] The drug concentration resulting in total growth inhibition (TGI) is calculated from Ti = Tz. […] Values are calculated for each of these three parameters if the level of activity is reached; however, if the effect is not reached or is exceeded, the value for that parameter is expressed as greater or less than the maximum or minimum concentration tested.

NCI-H460 = assay: as above; details: NCI-H460, 10 μM
Experimental: as §1

NCI-H23 = assay: as above; details: NCI-H23, 10 μM
Experimental: as §1

NCI-H322M = assay: as above; details: 10 μM
Experimental: as §1

EKVX = assay: as above; details: 10 μM
Experimental: as §1

NCI-H522 = assay: as above; details: NCI-H522, 10 μM
Experimental: as §1

NCI-H226 = assay: as above; details: NCI-H226, 10 μM
Experimental: as §1

HOP-92 = assay: as above; details: HOP-92, 10 μM
Experimental: as §1

MDA-MB-231/ATCC = assay: NCI 60 panel growth inhibition (SRB), breast cancer; details: 10 μM
Experimental: as §1

MCF7 = assay: as above; details: MCF7, 10 μM
Experimental: as §1

HS 578T = assay: as above; details: 10 μM
Experimental: as §1

MDA-MB-468 = assay: as above; details: MDA-MB-468, 10 μM
Experimental: as §1

BT-549 = assay: as above; details: BT-549, 10 μM
Experimental: as §1

KM12 = assay: NCI 60 panel growth inhibition (SRB), colon cancer; details: KM12, 10 μM
Experimental: as §1

HCT-116 = assay: NCI 60 panel growth inhibition (SRB), colon cancer; details: HCT-116, 10 μM
Experimental: as §1

HCT-15 = assay: NCI 60 panel growth inhibition (SRB), colon cancer; details: HCT-15, 10 μM
Experimental: as §1

SW-620 = assay: NCI 60 panel growth inhibition (SRB), colon cancer; details: SW-620, 10 μM
Experimental: as §1

HCC-2998 = assay: NCI 60 panel growth inhibition (SRB), colon cancer; details: HCC-2998, 10 μM
Experimental: as §1

DU-145 = assay: NCI 60 panel growth inhibition (SRB), prostate cancer; details: DU-145, 10 μM
Experimental: as §1

PC-3 = assay: as above; details: PC-3, 10 μM
Experimental: as §1

ACHN = assay: NCI 60 panel growth inhibition (SRB), renal cancer; details: 10 μM
Experimental: as §1

SN12C = assay: NCI 60 panel growth inhibition (SRB), renal cancer; details: 10 μM
Experimental: as §1

CAKI-1 = assay: NCI 60 panel growth inhibition (SRB), renal cancer; details: CAKI-1, 10 μM
Experimental: as §1

A498 = assay: NCI 60 panel growth inhibition (SRB), renal cancer; details: A498, 10 μM
Experimental: as §1

LOX IMVI = assay: NCI 60 panel growth inhibition (SRB), melanoma; details: 10 μM
Experimental: as §1

M14 = assay: NCI 60 panel growth inhibition (SRB), melanoma; details: M14, 10 μM
Experimental: as §1

SK-MEL-5 = assay: NCI 60 panel growth inhibition (SRB), melanoma; details: SK-MEL-5, 10 μM
Experimental: as §1

UACC-257 = assay: NCI 60 panel growth inhibition (SRB), melanoma; details: UACC-257, 10 μM
Experimental: as §1

MALME-3M = assay: NCI 60 panel growth inhibition (SRB), melanoma; details: 10 μM
Experimental: as §1

SK-MEL-28 = assay: NCI 60 panel growth inhibition (SRB), melanoma; details: SK-MEL-28, 10 μM
Experimental: as §1

MDA-MB-435 = assay: NCI 60 panel growth inhibition (SRB), melanoma; details: MDA-MB-435, 10 μM
Experimental: as §1

UACC-62 = assay: NCI 60 panel growth inhibition (SRB), melanoma; details: UACC-62, 10 μM
Experimental: as §1

HOP-62 = assay: NCI 60 panel growth inhibition (SRB), non-small cell lung cancer; details: HOP-62, 10 μM
Experimental: as §1

T-47D = assay: NCI 60 panel growth inhibition (SRB), breast cancer; details: 10 μM
Experimental: as §1

COLO 205 = assay: NCI 60 panel growth inhibition (SRB), colon cancer; details: COLO 205, 10 μM
Experimental: as §1

Structure (SMILES)	GI% (A549/ATCC)	GI% (NCI-H460)	GI% (NCI-H23)	GI% (NCI-H322M)	GI% (EKVX)	GI% (NCI-H522)	GI% (NCI-H226)	GI% (MDA-MB-231/ATCC)	GI% (MCF7)	GI% (HS 578T)	GI% (MDA-MB-468)	GI% (BT-549)	GI% (KM12)	GI% (HCT-116)	GI% (HCT-15)	GI% (SW-620)	GI% (HCC-2998)	GI% (DU-145)	GI% (ACHN)	GI% (SN12C)	also measured
COc1ccc(-c2nc3ccccc3s2)cc1OCC(=O)NN=C1C(=O)Nc2ccc(Cl)cc21 [Compound 9q, 2-(5-(Benzo[d]thiazol-2-yl)-2-methoxyphenoxy)-N′-(5-chloro-2-oxoindolin-3-ylidene)acetohydrazide]	20.18%	44.39%	42.70%	– (GI% < 5%)	25.37%	21.77%	24.77%	59.98%	57.82%	74.27%	– (GI% < 5%)	23.63%	17.57%	72.84%	36.40%	51.82%	– (GI% < 5%)	19.41%	59.32%	36.67%	GI% (HOP-92): 52.70%; GI% (PC-3): 26.21%; GI% (CAKI-1): 50.03%; GI% (A498): – (GI% < 5%); GI% (LOX IMVI): 72.29%; GI% (M14): 23.59%; GI% (SK-MEL-5): 12.80%; GI% (UACC-257): – (GI% < 5%); GI% (MALME-3M): 26.21%; GI% (SK-MEL-28): – (GI% < 5%); GI% (MDA-MB-435): 37.37%; GI% (UACC-62): 12.95%
COc1cccc(-c2nc3ccccc3s2)c1OCC(=O)NN=C1C(=O)Nc2ccc(Cl)cc21 [Compound 9k, 2-(2-(Benzo[d]thiazol-2-yl)-6-methoxyphenoxy)-N′-(5-chloro-2-oxoindolin-3-ylidene)acetohydrazide]	26.29%	8.94%	17.71%	– (GI% < 5%)	66.74%	28.39%	18.20%	19.83%	35.93%	8.19%	27.13%	7.55%	22.47%	13.42%	31.91%	– (GI% < 5%)	– (GI% < 5%)	– (GI% < 5%)	26.60%	14.00%	GI% (HOP-62): 6.81%; GI% (T-47D): 40.62%; GI% (COLO 205): – (GI% < 5%); GI% (CAKI-1): 39.78%; GI% (A498): – (GI% < 5%); GI% (LOX IMVI): 13.16%; GI% (M14): – (GI% < 5%); GI% (SK-MEL-5): 23.55%; GI% (UACC-257): – (GI% < 5%); GI% (SK-MEL-28): – (GI% < 5%); GI% (MDA-MB-435): – (GI% < 5%); GI% (UACC-62): 32.61%
COc1ccc(-c2nc3ccccc3s2)cc1OCC(=O)NN=C1C(=O)Nc2ccc([N+](=O)[O-])cc21 [Compound 9p, 2-(5-(Benzo[d]thiazol-2-yl)-2-methoxyphenoxy)-N′-(5-nitro-2-oxoindolin-3-ylidene)acetohydrazide]	7.06%	– (GI% < 5%)	47.90%	6.14%	9.22%	42.45%	67.22%	49.20%	17.21%	96.22%	17.86%	54.51%	– (GI% < 5%)	47.25%	– (GI% < 5%)	– (GI% < 5%)	– (GI% < 5%)	– (GI% < 5%)	76.97%	37.68%	GI% (HOP-92): 99.07%; GI% (PC-3): 11.94%; GI% (CAKI-1): 45.22%; GI% (A498): 20.06%; GI% (LOX IMVI): 13.12%; GI% (M14): – (GI% < 5%); GI% (SK-MEL-5): 5.61%; GI% (UACC-257): – (GI% < 5%); GI% (MALME-3M): 8.36%; GI% (SK-MEL-28): – (GI% < 5%); GI% (MDA-MB-435): – (GI% < 5%); GI% (UACC-62): 19.19%
COc1ccc(-c2nc3ccccc3s2)cc1OCC(=O)NN=C1C(=O)Nc2ccc(Br)cc21 [Compound 9r, 2-(5-(Benzo[d]thiazol-2-yl)-2-methoxyphenoxy)-N′-(5-bromo-2-oxoindolin-3-ylidene)acetohydrazide]	7.78%	– (GI% < 5%)	20.81%	– (GI% < 5%)	7.18%	8.27%	10.50%	42.55%	35.42%	46.81%	– (GI% < 5%)	21.16%	– (GI% < 5%)	30.23%	– (GI% < 5%)	7.61%	– (GI% < 5%)	– (GI% < 5%)	30.78%	20.61%	GI% (HOP-92): 32.33%; GI% (PC-3): 16.13%; GI% (CAKI-1): 29.61%; GI% (A498): – (GI% < 5%); GI% (LOX IMVI): 38.27%; GI% (M14): 9.47%; GI% (SK-MEL-5): – (GI% < 5%); GI% (UACC-257): – (GI% < 5%); GI% (MALME-3M): 11.71%; GI% (SK-MEL-28): – (GI% < 5%); GI% (MDA-MB-435): – (GI% < 5%); GI% (UACC-62): – (GI% < 5%)
COc1ccc(-c2nc3ccccc3s2)cc1OCC(=O)NN=C1C(=O)Nc2ccccc21 [Compound 9m, 2-(5-(Benzo[d]thiazol-2-yl)-2-methoxyphenoxy)-N′-(2-oxoindolin-3-ylidene) acetohydrazide]	– (GI% < 5%)	17.38%	14.06%	– (GI% < 5%)	– (GI% < 5%)	7.23%	– (GI% < 5%)	9.78%	33.97%	– (GI% < 5%)	8.24%	– (GI% < 5%)	– (GI% < 5%)	41.54%	10.77%	29.93%	– (GI% < 5%)	5.42%	19.82%	7.15%	GI% (HOP-92): – (GI% < 5%); GI% (PC-3): 7.63%; GI% (CAKI-1): 9.28%; GI% (A498): – (GI% < 5%); GI% (LOX IMVI): 18.28%; GI% (M14): – (GI% < 5%); GI% (SK-MEL-5): – (GI% < 5%); GI% (UACC-257): – (GI% < 5%); GI% (MALME-3M): – (GI% < 5%); GI% (SK-MEL-28): – (GI% < 5%); GI% (MDA-MB-435): – (GI% < 5%); GI% (UACC-62): – (GI% < 5%)
